Measured values from patent US8518957B2, “Methanocarba adenosine derivatives, pharmaceutical compositions, and method of reducing intraocular pressure” (The United States of America, as represented by the …, priority 2009, dated 2013).
Read-outs that look alike come from different tables or passages of the source.

Legend:
human A3AR = target: T1, human A3AR (Homo sapiens, UniProt P0DMS8); assay: Radioligand binding at human A3 AR ([125I]I-AB-MECA, membranes of CHO cells)
T1 construct: expressed in transfected cells
T1 sequence (P0DMS8 1-318): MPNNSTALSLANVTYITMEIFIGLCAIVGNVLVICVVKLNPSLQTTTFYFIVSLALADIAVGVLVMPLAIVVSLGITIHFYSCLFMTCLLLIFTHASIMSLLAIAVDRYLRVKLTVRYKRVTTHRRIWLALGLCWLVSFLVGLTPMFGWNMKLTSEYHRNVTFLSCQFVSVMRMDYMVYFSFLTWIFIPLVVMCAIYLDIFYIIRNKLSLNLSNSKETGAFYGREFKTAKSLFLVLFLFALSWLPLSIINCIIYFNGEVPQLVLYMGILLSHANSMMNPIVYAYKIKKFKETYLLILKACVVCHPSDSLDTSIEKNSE
Procedure: Test compounds were prepared as 5 mM stock solutions in DMSO and stored frozen at −20° C.
(§1) CHO cells stably expressing the recombinant hA1 and hA3Rs, and HEK-293 cells stably expressing the hA2AAR were cultured in Dulbecco's modified Eagle medium (DMEM) and F12 (1:1) supplemented with 10% fetal bovine serum, 100 units/mL penicillin, 100 μg/mL streptomycin, and […] glutamine. In addition, 800 μg/mL geneticin was added to the A2A media, while 500 μg/mL hygromycin was added to the A1 and A3 media. After harvesting, cells were homogenized and suspended in PBS. Cells were then centrifuged at 240 g for 5 min, and the pellet was resuspended in 50 mM Tris-HCl buffer (pH 7.5) containing 10 mM MgCl2. The suspension was homogenized and was then ultra-centrifuged at 14,330 g for 30 min at 4° C. The resultant pellets were resuspended in Tris buffer, incubated with adenosine deaminase (3 units/mL) for 30 min at 37° C. The suspension was homogenized with an electric homogenizer for 10 sec, pipetted into 1 mL vials and then stored at −80° C. until the binding experiments were conducted. The protein concentration was measured using the BCA Protein Assay Kit from Pierce Biotechnology, Inc. (Rockford, Ill.).
Into each tube in the binding assay was added 50 μL of increasing concentrations of the test ligand in Tris-HCl buffer (50 mM, pH 7.5) containing 10 mM MgCl2, 50 μl, of the appropriate agonist radioligand, and finally 100 μL of membrane suspension. […] For the A2AAR (20 μg/tube) the radioligand used was [^3H]37 (10 nM). […] Nonspecific binding was determined using a final concentration of 10 μM unlabeled 36 diluted with the buffer. The mixtures were incubated at 25° C. for 60 min in a shaking water bath. Binding reactions were terminated by filtration through Brandel GF/B filters under a reduced pressure using a M-24 cell harvester (Brandel, Gaithersburg, Md.). Filters were washed three times with 3 mL of 50 mM ice-cold Tris-HCl buffer (pH 7.5). […] Filters for A3AR binding were counted using a Packard Cobra II γ-counter. The Ki values were determined using GraphPad Prism for all assays.
Test compounds were prepared as 5-mM stock solutions in DMSO and stored frozen at −20° C.
(§2) Chinese hamster ovary (CHO) cells were generated by stably expressing the recombinant hA1 and hA3 and human embryonic kidney (HEK) 293 cells stably expressing the hA2AAR in DMEM and F12 (1:1) supplemented with 10% fetal bovine serum, 100 units/mL penicillin, 100 μg/mL streptomycin, and 2 μmol/mL glutamine. 800 μg/mL Geneticin were added to the A2A media and 500 μg/mL hygromycin to the A1 and A3 media. After harvesting the cells, they were homogenized with an electric homogenizer for 10 sec, pipetted them into 1-mL vials, and then stored them at −80° C. until the binding experiments were conducted. The protein concentration was measured with a BCA Protein Assay Kit from Pierce Biotechnology (Rockford, Ill.).
Each tube in the binding assay contained 50 μL of increasing concentrations of the test ligand in Tris-HCl buffer (50 mM, pH 7.5) containing 10 mM MgCl2, 50 μL of the appropriate agonist radioligand, and 100 μL membrane suspension, added sequentially. […] For the A2AAR (20 μg/tube), the radioligand [^3H]CGS21680 was used (−10 nM). […] The mixtures were incubated at 25° C. for 60 min in a shaking water bath. The binding reactions were terminated by filtration through Brandel GF/B filters under a reduced pressure with a M-24 cell harvester (Brandel, Gaithersburg, Md.). Filters were washed three times with 3 mL 50-mM ice-cold Tris-HCl buffer (pH 7.5). […] The filters were counted for A3AR binding with a Packard Cobra II γ-counter (PerkinElmer). The Ki values were determined with GraphPad Prism for all assays.

human A1 AR = target: T2, human A1 AR (Homo sapiens, UniProt P30542); assay: Radioligand binding at human A1 AR ([3H]NECA, membranes of CHO cells); conditions: for Ki: Example 7, agonist radioligand [3H]45, read-out: AR Affinity Ki, nM, A1
T2 construct: expressed in transfected cells
T2 sequence (P30542 1-326): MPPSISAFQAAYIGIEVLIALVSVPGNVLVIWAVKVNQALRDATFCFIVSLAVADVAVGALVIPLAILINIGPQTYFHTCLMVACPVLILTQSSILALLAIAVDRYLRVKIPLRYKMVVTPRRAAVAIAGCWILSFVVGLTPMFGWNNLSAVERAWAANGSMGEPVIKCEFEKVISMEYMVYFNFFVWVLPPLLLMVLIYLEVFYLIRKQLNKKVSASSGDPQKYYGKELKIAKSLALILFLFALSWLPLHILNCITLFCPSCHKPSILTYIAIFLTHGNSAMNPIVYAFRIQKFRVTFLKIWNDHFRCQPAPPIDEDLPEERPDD
Procedure: (§3) [^3H](2-[p-(2-Carboxyethyl)phenyl-ethylamino]-5′-N-ethylcarboxamido-adenosine) (37, [^3H]CGS21680, 40.5 Ci/mmol) and [^125I]N^6-(4-amino-3-iodobenzyl)adenosine-5′-N-methyluronamide (38, [^125I]I-AB-MECA, 2200 Ci/mmol) were purchased from Perkin-Elmer Life and Analytical Science (Boston, Mass.). Test compounds were prepared as 5 mM stock solutions in DMSO and stored frozen at −20° C.
as §1
(§4) Into each tube in the binding assay was added 50 μL of increasing concentrations of the test ligand in Tris-HCl buffer (50 mM, pH 7.5) containing 10 mM MgCl2, 50 μl, of the appropriate agonist radioligand, and finally 100 μL of membrane suspension. For the A1AR (22 μg of protein/tube) the radioligand used was [^3H]36 (final concentration of 3.5 nM). For the A2AAR (20 μg/tube) the radioligand used was [^3H]37 (10 nM). For the A3AR (21 μg/tube) the radioligand used was [^125I]38 (0.34 nM). Nonspecific binding was determined using a final concentration of 10 μM unlabeled 36 diluted with the buffer. The mixtures were incubated at 25° C. for 60 min in a shaking water bath. Binding reactions were terminated by filtration through Brandel GF/B filters under a reduced pressure using a M-24 cell harvester (Brandel, Gaithersburg, Md.). Filters were washed three times with 3 mL of 50 mM ice-cold Tris-HCl buffer (pH 7.5). Filters for A1 and A2AAR binding were placed in scintillation vials containing 5 mL of Hydrofluor scintillation buffer and counted using a Perkin Elmer Liquid Scintillation Analyzer (Tri-Carb 2810TR). Filters for A3AR binding were counted using a Packard Cobra II γ-counter. The Ki values were determined using GraphPad Prism for all assays.
(§5) [^3H](2-[p-(2-carboxyethyl)phenyl-ethylamino]-5′-N-ethylcarboxamido-adenosine) ([^3H]CGS21680, 40.5 Ci/mmol) and [^125I]N^6-(4-amino-3-iodobenzyl)adenosine-5′-N-methyluronamide ([^125I]I-AB-MECA, 2200 Ci/mmol) were purchased from PerkinElmer. Test compounds were prepared as 5-mM stock solutions in DMSO and stored frozen at −20° C.
as §2, with “Ill.). […]” for “Ill.).”

hA2AAR = target: T3, hA2AAR (Homo sapiens, UniProt P29274); assay: Radioligand binding at human A2A AR ([3H]CGS21680, membranes of HEK-293 cells); conditions: for Ki: Example 7, agonist radioligand [3H]46, HEK293, read-out: AR Affinity Ki, nM, A2A
T3 construct: expressed in transfected cells
T3 sequence (P29274 whole entry): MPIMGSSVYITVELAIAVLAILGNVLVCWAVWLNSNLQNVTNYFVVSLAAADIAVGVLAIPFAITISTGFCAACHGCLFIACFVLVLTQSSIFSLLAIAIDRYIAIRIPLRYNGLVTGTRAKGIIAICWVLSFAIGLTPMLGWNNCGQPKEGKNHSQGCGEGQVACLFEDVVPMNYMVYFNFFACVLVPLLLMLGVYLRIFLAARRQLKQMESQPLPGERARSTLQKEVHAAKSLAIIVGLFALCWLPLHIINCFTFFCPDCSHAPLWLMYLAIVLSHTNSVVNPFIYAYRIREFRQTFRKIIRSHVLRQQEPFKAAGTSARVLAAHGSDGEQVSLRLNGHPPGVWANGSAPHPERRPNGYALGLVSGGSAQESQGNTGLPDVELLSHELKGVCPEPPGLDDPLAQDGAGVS
Procedure: as §3, §1, §4, §5
as §2, with “Ill.). […]” for “Ill.).”

[1] = Example 7, agonist radioligand [125I]47, read-out: AR Affinity Ki, nM, A3

CNC(=O)[C@@]12C[C@@H]1[C@@H](n1cnc3c(NCc4cccc(Cl)c4)nc(C#CCCCc4cn(-c5ccc(F)c([N+](=O)[O-])c5)nn4)nc31)[C@H](O)[C@@H]2O [Compound 10, (1S,2R,3S,4R,5S)-4′-(6-(3-Chlorobenzylamino)-2-(6-(1-(4-fluoro-3-nitrophenyl)-1H-1,2,3-triazol-4-yl)pent-1-ynyl)-9H-purin-9-yl)-2′,3′-dihydroxybicyclo[3.1.0]hexane-1′-carboxylic acid N-methylamide]
Ki (human A3AR; [125I]38, CHO cells, read-out: Affinity (Ki, nM), A3): 26 ± 8.2 nM
% inhibition, A1 (human A1 AR; inhibition of radioligand binding at 10 μM, [3H]36, CHO cells): (10 ± 3%)
% inhibition, A2A (hA2AAR; inhibition of radioligand binding at 10 μM, [3H]37, HEK293 cells): (39 ± 4%)

C#CCCCCCC#Cc1cccc(CNc2nc(Cl)nc3c2ncn3[C@H]2[C@H](O)[C@H](O)[C@]3(C(=O)NC)C[C@H]23)c1 [Compound 202, (1S,2R,3S,4R,5S)-4-[2-Chloro-6-{3-(1,8-nonadiynyl)}-9H-purin-9-yl]-2,3-dihydroxybicyclo[3.1.0]hexane-1-carboxylic acid N-methylamide]
Ki (human A3AR; [1]): 87.2 ± 49 nM
inhibition at 10 µM (human A1 AR): 47.7%
inhibition at 10 µM (hA2AAR): 7%

O=[N+]([O-])c1cc(-n2cc(CNc3nc(Cl)nc4c3ncn4[C@H]3[C@H](O)[C@H](O)[C@@H]4C[C@@H]43)nn2)ccc1F [Compound 223]
Ki (human A3AR; [1]): 388 ± 170 nM
inhibition at 10 µM (human A1 AR): 44.7%
inhibition at 10 µM (hA2AAR): 19.2%

O=[N+]([O-])c1cc(-n2cc(CCCC#Cc3cccc(CNc4nc(Cl)nc5c4ncn5[C@H]4[C@H](O)[C@H](O)[C@@H]5C[C@@H]54)c3)nn2)ccc1F [Compound 214, (1R,2R,3S,4R,5S)-4-(2-Chloro-6-(3-(5-(1-(4-fluoro-3-nitrophenyl)-1H-1,2,3-triazol-4-yl)pent-1-ynyl)benzylamino)-9H-purin-9-yl)-bicyclo[3.1.0]hexane-2,3-diol]
Ki (human A3AR; [1]): 897 ± 20 nM
inhibition at 10 µM (human A1 AR): 11%
inhibition at 10 µM (hA2AAR): 16.7%

CNC(=O)[C@@]12C[C@@H]1[C@@H](n1cnc3c(NCc4cccc(C#CCCCc5cn(-c6ccc(F)c([N+](=O)[O-])c6)nn5)c4)nc(Cl)nc31)[C@H](O)[C@@H]2O [Compound 203, (1S,2R,3S,4R,5S)-4-(2-Chloro-6-(3-(5-(1-(4-fluoro-3-nitrophenyl)-1H-1,2,3-triazol-4-yl)pent-1-ynyl)benzylamino)-9H-purin-9-yl)-2,3-dihydroxybicyclo[3.1.0]hexane-1-carboxylic acid-N-methylamide]
Ki (human A3AR; [1]): 3.2 ± 1.1 nM
Ki (human A1 AR): 37.4 ± 12 nM
Ki (hA2AAR): 1960 ± 50 nM

CNC(=O)[C@@]12C[C@@H]1[C@@H](n1cnc3c(NCc4cccc(C#CCCCCCc5cn(-c6ccc(F)c(N)c6)nn5)c4)nc(Cl)nc31)[C@H](O)[C@@H]2O [Compound 208, (1S,2R,3S,4R,5S)-4-(2-Chloro-6-(3-(7-(1-(4-fluoro-3-amino-phenyl)-1H-1,2,3-triazol-4-yl)hept-1-ynyl)benzylamino)-9H-purin-9-yl)-2,3-dihydroxybicyclo[3.1.0]hexane-1-carboxylic acid-N-methylamide]
Ki (human A3AR; [1]): 47.6 ± 11.3 nM

CNC(=O)[C@@]12C[C@@H]1[C@@H](n1cnc3c(NCc4cccc(I)c4)nc(Cl)nc31)[C@H](O)[C@@H]2O [Compound 127, reference compound]
Ki (human A1 AR): 136 ± 22 nM
Ki (hA2AAR): 784 ± 97 nM

CNC(=O)[C@@]12C[C@@H]1[C@@H](n1cnc3c(NCc4cccc(C#CCCCc5cn(-c6ccc(F)c(N)c6)nn5)c4)nc(Cl)nc31)[C@H](O)[C@@H]2O [Compound 207, (1S,2R,3S,4R,5S)-4-(2-Chloro-6-(3-(5-(1-(4-fluoro-3-amino-phenyl)-1H-1,2,3-triazol-4-yl)pent-1-ynyl)benzylamino)-9H-purin-9-yl)-2,3-dihydroxybicyclo[3.1.0]hexane-1-carboxylic acid-N-methylamide]
Ki (human A3AR; [1]): 14.3 ± 2.3 nM

C#CCNc1nc(Cl)nc2c1ncn2[C@H]1[C@H](O)[C@H](O)[C@]2(C(=O)NC)C[C@H]12 [Compound 218, (1S,2R,3S,4R,5S)-4-(2-Chloro-6-(prop-2-ynylamino)-9H-purin-9-yl)-2,3-dihydroxy-N-methylbicyclo[3.1.0]hexane-1-carboxamide]
Ki (human A3AR; [1]): 1.9 nM
